Experimental data taken from PubChem BioAssay AID2060882 (Molecular Pharmacology Branch, DTP, NCI, 2025).

Test system: 898857-211-R-J1-PDC complex spheroids, growth % test/control
Assay: Anticancer human tumor 898857-211-R-J1-PDC patient-derived melanoma cell line growth inhibition [RAS]
Conditions: for IC50: curve of first compound; for viability, T/C: stronger effect = lower value
Summary of the method: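 Agents were tested in combination matrices in half-log decrements from a top concentration at or near clinical Cmax (10 microM if undetermined). Targets were multi-cell spheroids of tumour lines plus HUVEC and MSC stromal cells.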

[1] = second compound 0.000949 µM, first compound 0.0316 µM
[2] = second compound 0.000949 µM, first compound 0.1 µM
[3] = second compound 0.000949 µM, first compound 0.316 µM
[4] = second compound 0.000949 µM, first compound 1 µM
[5] = second compound 0.000949 µM, first compound 3.16 µM
[6] = second compound 0.000949 µM, first compound 10 µM
[7] = second compound 0.003 µM, first compound 0.0316 µM
[8] = second compound 0.003 µM, first compound 0.1 µM
[9] = second compound 0.003 µM, first compound 0.316 µM
[10] = second compound 0.003 µM, first compound 1 µM
[11] = second compound 0.003 µM, first compound 3.16 µM
[12] = second compound 0.003 µM, first compound 10 µM
[13] = second compound 0.00949 µM, first compound 0.0316 µM
[14] = second compound 0.00949 µM, first compound 0.1 µM
[15] = second compound 0.00949 µM, first compound 0.316 µM
[16] = second compound 0.00949 µM, first compound 1 µM
[17] = second compound 0.00949 µM, first compound 3.16 µM
[18] = second compound 0.00949 µM, first compound 10 µM
[19] = second compound 0.03 µM, first compound 0.0316 µM
[20] = second compound 0.03 µM, first compound 0.1 µM
[21] = second compound 0.03 µM, first compound 0.316 µM
[22] = second compound 0.03 µM, first compound 1 µM
[23] = second compound 0.03 µM, first compound 3.16 µM
[24] = second compound 0.03 µM, first compound 10 µM
[25] = second compound 0.0949 µM, first compound 0.0316 µM
[26] = second compound 0.0949 µM, first compound 0.1 µM
[27] = second compound 0.0949 µM, first compound 0.316 µM
[28] = second compound 0.0949 µM, first compound 1 µM
[29] = second compound 0.0949 µM, first compound 3.16 µM
[30] = second compound 0.0949 µM, first compound 10 µM
[31] = second compound 0.3 µM, first compound 0.0316 µM
[32] = second compound 0.3 µM, first compound 0.1 µM
[33] = second compound 0.3 µM, first compound 0.316 µM
[34] = second compound 0.3 µM, first compound 1 µM
[35] = second compound 0.3 µM, first compound 3.16 µM
[36] = second compound 0.3 µM, first compound 10 µM
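Further: spheroids exposed to compound for seven days before readout.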
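Wherever viability, T/C is given: 100% = DMSO vehicle control wells.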

For `Cc1nc(N2CCC3(CC2)COC(C)C3N)c(CO)nc1Sc1ccnc(N)c1Cl` (stereo unspecified) + CCn1c(-c2cccnc2C(C)OC)c2c3cc(ccc31)N1CCOC(CC(NC(=O)C(C(C)C)N(C)C(=O)C3(F)CCN(C(=O)C#CC(C)(C)N(C)C)CC3)C(=O)N3CCCC(N3)C(=O)OCC(C)(C)C2)C1, the IC50 (second compound 0.000949 µM) was greater than 10 µM, the IC50 (second compound 0.003 µM) was greater than 10 µM and the IC50 (second compound 0.00949 µM) was greater than 10 µM. The IC50 (second compound 0.03 µM) was greater than 10 µM, the IC50 (second compound 0.0949 µM) was greater than 10 µM and the IC50 (second compound 0.3 µM) was greater than 10 µM. For the same compound, the viability, T/C [1] was 94.5%, the viability, T/C [2] was 94.9% and the viability, T/C [3] was 103%. It also gave a viability, T/C [4] of 98.8%, a viability, T/C [5] of 93.1% and a viability, T/C [6] of 90.6%. The viability, T/C [7] was 98.6%, the viability, T/C [8] was 98.5% and the viability, T/C [9] was 97.6%. For the same compound, the viability, T/C [10] was 95.7%, the viability, T/C [11] was 113% and the viability, T/C [12] was 93.4%. It also gave a viability, T/C [13] of 99.7%, a viability, T/C [14] of 104% and a viability, T/C [15] of 107%. The viability, T/C [16] was 96%, the viability, T/C [17] was 92.3% and the viability, T/C [18] was 85.1%. For the same compound, the viability, T/C [19] was 93.2%, the viability, T/C [20] was 90.2% and the viability, T/C [21] was 96.8%. The viability, T/C [22] was 109%, the viability, T/C [23] was 89.5% and the viability, T/C [24] was 92%. For the same compound, the viability, T/C [25] was 90.6%, the viability, T/C [26] was 100% and the viability, T/C [27] was 87.7%. For the same compound, the viability, T/C [28] was 96.3%, the viability, T/C [29] was 92% and the viability, T/C [30] was 88.6%. For the same compound, the viability, T/C [31] was 85.2%, the viability, T/C [32] was 82.7% and the viability, T/C [33] was 77.4%. For the same compound, the viability, T/C [34] was 76.9%, the viability, T/C [35] was 74.2% and the viability, T/C [36] was 69.5%.
`NC1c2ccccc2OC12CCN(c1cnc3c(N4CCCc5ncccc54)n[nH]c3n1)CC2` (stereo unspecified) + CCn1c(-c2cccnc2C(C)OC)c2c3cc(ccc31)N1CCOC(CC(NC(=O)C(C(C)C)N(C)C(=O)C3(F)CCN(C(=O)C#CC(C)(C)N(C)C)CC3)C(=O)N3CCCC(N3)C(=O)OCC(C)(C)C2)C1 gave an IC50 (second compound 0.000949 µM) greater than 10 µM, an IC50 (second compound 0.003 µM) greater than 10 µM and an IC50 (second compound 0.00949 µM) greater than 10 µM. For the same compound, the IC50 (second compound 0.03 µM) was greater than 10 µM, the IC50 (second compound 0.0949 µM) was greater than 10 µM and the IC50 (second compound 0.3 µM) was 7.88 µM. For the same compound, the viability, T/C [1] was 91.6%, the viability, T/C [2] was 94.3% and the viability, T/C [3] was 99.9%. It also gave a viability, T/C [4] of 90.7%, a viability, T/C [5] of 101% and a viability, T/C [6] of 70.9%. For the same compound, the viability, T/C [7] was 95%, the viability, T/C [8] was 88.7% and the viability, T/C [9] was 90.4%. It also gave a viability, T/C [10] of 90.9%, a viability, T/C [11] of 97.9% and a viability, T/C [12] of 67.8%. It also gave a viability, T/C [13] of 99%, a viability, T/C [14] of 106% and a viability, T/C [15] of 101%. For the same compound, the viability, T/C [16] was 87.2%, the viability, T/C [17] was 89% and the viability, T/C [18] was 74.3%. For the same compound, the viability, T/C [19] was 103%, the viability, T/C [20] was 100% and the viability, T/C [21] was 101%. The viability, T/C [22] was 96.6%, the viability, T/C [23] was 95.1% and the viability, T/C [24] was 63.8%. It also gave a viability, T/C [25] of 82.9%, a viability, T/C [26] of 87.2% and a viability, T/C [27] of 97.7%. For the same compound, the viability, T/C [28] was 91.1%, the viability, T/C [29] was 84.8% and the viability, T/C [30] was 55.4%. For the same compound, the viability, T/C [31] was 73.3%, the viability, T/C [32] was 77.6% and the viability, T/C [33] was 67.9%. For the same compound, the viability, T/C [34] was 72.9%, the viability, T/C [35] was 72.6% and the viability, T/C [36] was 44.1%.
`Nc1ccn(C2OC(CO)C(O)C2(F)F)c(=O)n1` (stereo unspecified) + CCn1c(-c2cccnc2C(C)OC)c2c3cc(ccc31)N1CCOC(CC(NC(=O)C(C(C)C)N(C)C(=O)C3(F)CCN(C(=O)C#CC(C)(C)N(C)C)CC3)C(=O)N3CCCC(N3)C(=O)OCC(C)(C)C2)C1 gave an IC50 (second compound 0.000949 µM) of 0.00676 µM, an IC50 (second compound 0.003 µM) of 0.00719 µM and an IC50 (second compound 0.00949 µM) of 0.0067 µM. It also gave an IC50 (second compound 0.03 µM) of 0.00602 µM, an IC50 (second compound 0.0949 µM) of 0.00571 µM and an IC50 (second compound 0.3 µM) of 0.00359 µM. For the same compound, the viability, T/C (second compound 0.000949 µM, first compound 0.00316 µM) was 92.8%, the viability, T/C (second compound 0.000949 µM, first compound 0.01 µM) was 27.9% and the viability, T/C [1] was 5.77%. The viability, T/C [2] was 4.12%, the viability, T/C [3] was 5.73% and the viability, T/C [4] was 5.16%. The viability, T/C (second compound 0.003 µM, first compound 0.00316 µM) was 100%, the viability, T/C (second compound 0.003 µM, first compound 0.01 µM) was 29.9% and the viability, T/C [7] was 6.22%. For the same compound, the viability, T/C [8] was 5.43%, the viability, T/C [9] was 4.28% and the viability, T/C [10] was 4.09%. For the same compound, the viability, T/C (second compound 0.00949 µM, first compound 0.00316 µM) was 95.7%, the viability, T/C (second compound 0.00949 µM, first compound 0.01 µM) was 25.6% and the viability, T/C [13] was 5.43%. For the same compound, the viability, T/C [14] was 3.4%, the viability, T/C [15] was 4.91% and the viability, T/C [16] was 4.53%. It also gave a viability, T/C (second compound 0.03 µM, first compound 0.00316 µM) of 86.8%, a viability, T/C (second compound 0.03 µM, first compound 0.01 µM) of 21% and a viability, T/C [19] of 4.86%. For the same compound, the viability, T/C [20] was 4.53%, the viability, T/C [21] was 4.23% and the viability, T/C [22] was 3.48%. For the same compound, the viability, T/C (second compound 0.0949 µM, first compound 0.00316 µM) was 86%, the viability, T/C (second compound 0.0949 µM, first compound 0.01 µM) was 15.7% and the viability, T/C [25] was 4.15%. It also gave a viability, T/C [26] of 3.36%, a viability, T/C [27] of 3.77% and a viability, T/C [28] of 4.54%. It also gave a viability, T/C (second compound 0.3 µM, first compound 0.00316 µM) of 54.6%, a viability, T/C (second compound 0.3 µM, first compound 0.01 µM) of 12.4% and a viability, T/C [31] of 3.88%. For the same compound, the viability, T/C [32] was 3.1%, the viability, T/C [33] was 3.62% and the viability, T/C [34] was 2.98%.
